{"source": "patent US20250025440A1", "about": "“COMPOSITIONS AND METHODS FOR MANAGEMENT OF HUMAN PAPILLOMA VIRUS-ASSOCIATED CANCERS” (LOMA LINDA UNIVERSITY, priority 2021, published 2025)", "assay_type_in_all_cases": "cell-based", "key": {"SCC47 (HPV+)": {"system": "SCC47 (HPV+)", "assay": "Cell cycle analysis after irradiation (PI flow cytometry)", "details": "SCC47, radiation (4Gy) followed by GA-OH, 24 hours", "description": "Cells were treated with radiation (4Gy) followed by GA-OH before cell cycle analysis was performed using propidium iodide (PI) flow cytometry assay after 24 hours. FIGS. 15A-15B are graphical representations of the cell cycle analysis of SCC47 and SCC19 cell lines after irradiation and followed by treatment with control or with GA-OH, as measured by flow cytometry assays after 24 hours. In both cell lines, G2-M is the most affected stage of cell cycle and there is increase in G2-M arrested cells. The HPV^+ cell line—SCC47 has a higher proportion of cells that are still arrested in G2-M phase after 24 hours compared to the HPV^− cell line—SCC19. FIGS. 16A-16B are graphical representations of the fraction of G2-M arrested cells in SCC47 and SCC19 lines after irradiation and followed by treatment with control or with GA-OH, as measured by flow cytometry assays after 24 hours. […]\nKinetics of G2-M arrest when SCC47 and SCC19 are irradiated with or without GA-OH. […] FIGS. 17A-17B are graphical representations of the kinetics of G2-M arrest when SCC47 and SCC19 are irradiated and followed by treatment with control or with GA-OH, as measured by flow cytometry assays after 24 hours. […] Apoptosis analysis of SCC47 and SCC19 was performed after irradiation and followed by treatment with control or with GA-OH, as measured by flow cytometry assays after 24 hours. […]"}, "[1]": {"system": "HPV+ cell lines (SCC090, SCC104, SiHa)", "assay": "Caspase 3/7 activity Glo assay", "details": "0.75 μM, 24 hours", "description": "(§1) These findings were then confirmed by conducting a Caspase 3/7 activity Glo assay, which is a surrogate for apoptotic induction. Three HPV^+ cell lines (SCC090, SCC104, SiHa) and two HPV^− cell lines (SCC19, SCC84) were assessed for activity of caspases 3 and 7, and thus for apoptosis activity. […] FIG. 8B is a graphical representation of the Caspase 3/7 activity of gambogic acid in various HPV+ and HPV− cell lines. These cell lines were seeded in 96 well plates and treated with 0.75 uM GA-OH. Caspase 3/7 activity was measured after 24 hours. HPV^+ cell lines show high levels of Caspase 3/7 activity. […] FIG. 10 is a graphical representation of the cell viability as measured by MTT, when three HPV^+ cell lines (SCC090, SCC104, SiHa) and two HPV^− cell lines (SCC19, SCC84) were treated with gambogic acid.\n(§2) Cells were seeded into white walled 96-well plates at 2×10^4 cells per well in 100 μL media and incubated overnight. GA-OH (0.75 μM) and vehicle were then added and incubated at 37° C. for 24 hr. Caspase 3/7 activity was measured using the Caspase 3/7 Glo kit (Promega, Fitchburg, WI, USA) following the manufacturer's instructions. Briefly, room temperature-equilibrated Caspase-Glo reagent was added (Promega) to each well. […] After a 2-hr incubation, luminescence was measured using a plate-reading fluorimeter (Flx800, Bio-Tek Instrument Co., Winooski, VT, USA). […]"}, "[2]": {"system": "HPV- cell lines (SCC19, SCC84)", "assay": "Caspase 3/7 activity Glo assay", "details": "0.75 μM, 24 hours", "description": "as §1, §2"}, "[3]": {"system": "SCC90 and SCC104 (HPV+) cells", "assay": "Western blotting of p53 and apoptosis mediators", "details": "0.5 μM and 1 μM, 24 hours", "description": "(§3) Based on the cell viability studies described above, as well as AlphaScreen™ data showing that that GA-OH prevents E6 from binding to both caspase 8 and the p53-recruiter, E6AP, activation of p53 and associated apoptotic effects could be contributing to the decrease in cell viability. Levels of p53 and its target gene product, p21, were evaluated using immunoblotting. […] FIG. 8A is a photographic image of blots analyzing Caspase 8 expression and activation of downstream targets. SCC19, SCC90 and SCC104 were seeded and treated with vehicle, 0.5 μM and 1 μM Of GA-OH for 24 hours. Activation of p53 was tested by blotting for p53 expression and activation. Caspase 8 activation and apoptosis was tested by blotting for Caspase 8 expression and activation of downstream targets. These observations were corroborated by an induction of the levels of the target of p53, p21. […] The basal levels of p53 in the HPV^+ cell lines are lower compared to the HPV^− cell line.\n(§4) The effect of GA-OH treatment on activation of another target of E6, caspase 8, and its downstream targets in the apoptosis cascade was evaluated. […] There is a noticeable increase in caspase 8 levels in the HPV^− cell line upon exposure to GA-OH. […] Quantification of relative expression of each of the targets above using B-actin as a loading control. FIGS. 9A-9E are graphical representations of the relative expression of cleaved PARP, p53, p21, cleaved caspase 3, and cleaved caspase 8, respectively in SCC19, SCC90 and SCC104 cell lines when treated with vehicle, or 0.5 μM, or 1 μM of GA-OH, each of the targets above using B-actin as a loading control is shown.\n(§5) Adherent cells were washed with ice cold PBS. Cell lysis buffer containing protease inhibitor cocktail was added and cells were scraped off into a tube on ice. The cells were incubated on ice for 10 minutes. Cell lysates were separated by SDS-PAGE and electrophoretically transferred to PVDF membranes. Following blocking, antibodies directed against caspase 8, p53, cleaved PARP, cleaved caspase 3, p21, and β-actin (Cell signaling) were applied at 1:5000 dilution. Anti-mouse and anti-rabbit secondary antibodies were then employed (LI-COR Biosciences, Lincoln, NE, USA). Signals were measured using the Odyssey Infrared Imaging system (LI-COR Biosciences) and quantified using Image J."}, "SCC19 (HPV-) cells": {"system": "SCC19 (HPV-) cells", "assay": "Western blotting of p53 and apoptosis mediators", "details": "HPV- cell line, 0.5 μM and 1 μM, 24 hours", "description": "as §3, §4, §5"}}, "data": [{"substance": "30-hydroxygambogic acid [GA-OH]", "values": [{"measurement": "G2-M arrest", "setting": "SCC47 (HPV+)", "result": "increased arrest at 24 hours as compared to radiation alone"}, {"measurement": "Caspase 3/7 activity (apoptosis induction)", "setting": "[1]", "result": "Significant apoptosis induction"}, {"measurement": "Caspase 3/7 activity (apoptosis induction)", "setting": "[2]", "result": "little to no apoptosis activity"}, {"measurement": "PARP cleavage", "setting": "[3]", "result": "cleavage is modest"}, {"measurement": "caspase 3 cleavage", "setting": "[3]", "result": "cleaved dose-dependently"}, {"measurement": "caspase 8 cleavage", "setting": "[3]", "result": "cleavage of caspase 8 in a dose-dependent manner"}, {"measurement": "p53 level", "setting": "[3]", "result": "increase of p53"}, {"measurement": "p21 level", "setting": "[3]; vs vehicle", "result": "robust induction of p21 levels"}, {"measurement": "caspase 8 cleavage", "setting": "SCC19 (HPV-) cells", "result": "no visible cleavage of caspase 8"}]}]}
